# Test results as given in PMC12467740, “Synthesis, Characterization, and Screening Anticancer—Antibiofilm Activities of Theophylline Derivatives Containing CF3/OCF3 Moiety” (Biology, 2025).
# Several values for one entry are separate records, joined by “and”; a condition that tells them apart may be missing. Identical values can stand only once.
# Columns and labels:
# CYP450 = conditions: cited from earlier work
# Pseudomonas aeruginosa = test: Well plate biofilm formation assay (crystal violet); type: cell-based; conditions: over the concentration range given per compound (Table 4)
# Experimental: (§1) The well plate assay was utilized to test the effectiveness of compounds in inhibiting biofilms made by microorganisms. An amount of 100 μL of Brucella broth (Remel, Lenexa, KS, USA) containing 1% and 20% glucose (Biolife, Milan, Italy), were dispensed into the test wells. In the next step, 100 μL of compounds ranging from 0.244 to 1000 μg/mL were poured into the wells. […] Then, 0.5 McFarland standard in physiological saline from each microorganism strain were prepared and 20 μL of the prepared suspension was added to the wells. A column of the microplate containing 100 μL Brucella broth served as a negative control and another column of the microplate containing 100 μL Brucella with 20 μL of each microorganism added served as a growth control. As positive controls, ciprofloxacin was applied against bacterial strains at a concentration range of 0.03125-64 μg/mL, and fluconazole was used against Candida albicans at a concentration range of 0.3125-640 μg/mL. Plates were left to incubate at 36.5 °C for a day. The plates were emptied and then washed three times with 300 μL of deionized water. The wells were left to dry for half an hour. The next step was staining with 0.1% (w/v) violet dye ([…]), cleaning three times with deionized water, and drying at room temperature. The crystal violet adhering to the wall of the wells was dissolved with 95% ethanol, and the optical density was measured at 570 nm. The test was run two times, and the mean value was calculated. Biofilm preventing (%) = {(ODb - ODc)/ODb} × 100.
# Staphylococcus aureus = test: as above; type: cell-based; conditions: over the concentration range given per compound (Table 4); 1c and 1e at 1000 µg/mL
# Experimental: as §1
# Escherichia coli = test: as above; type: cell-based; conditions: over the concentration range given per compound (Table 4)
# Experimental: as §1
# Enterococcus faecalis = test: as above; type: cell-based; conditions: over the concentration range given per compound (Table 4)
# Experimental: as §1
# [1] = test system: Pseudomonas aeruginosa (ATCC 27853); test: Broth microdilution MIC; type: cell-based; conditions: ciprofloxacin 0.03125–64 µg/mL
# Experimental: (§2) The antibacterial activities of the compounds were determined using the broth microdilution method, as per the advice of international standards. […] Standard bacterial strains Staphylococcus aureus (ATCC 29213), Enterococcus faecalis (ATCC 29212), Escherichia coli (ATCC 25922), Pseudomonas aeruginosa (ATCC 27853), and yeast Candida albicans (ATCC 10231), were previously stored at −80 °C then revived at room temperature. Microorganisms were inoculated using overnight broth cultures. Stock solutions of the samples studied at a concentration of 1000 µg/mL were prepared with dimethyl sulfoxide (DMSO). An amount of 100 µL of Mueller Hinton Broth (Liofilchem, Italy) were dispensed into all wells of 96-well microplates. […] Serial dilutions of 0.00048–1% DMSO were made into a column of the microplate to determine its antimicrobial activity. 0.5 McFarland standard in physiological saline from each microorganism strains were prepared and 20 µL of the prepared suspension was added to the wells. An amount of 100 µL Mueller Hinton Broth in a column of the microplate served as a negative control and another column of the microplate containing 100 µL of Mueller Hinton Broth with 20 µL of each microorganism added served as a growth control. As positive controls, ciprofloxacin was applied against bacterial strains at a concentration range of 0.03125–64 µg/mL, and fluconazole was used against Candida albicans at a concentration range of 0.3125–640 µg/mL. The plates were covered with parafilm, incubated at 36.5 °C in an aerobic environment for 24 h. After incubation, the optical density was measured at 620 nm. The first concentration without microbial growth was determined as MIC and experiments were repeated twice.
# [2] = test system: Enterococcus faecalis (ATCC 29212); test: Broth microdilution MIC; type: cell-based; conditions: ciprofloxacin 0.03125–64 µg/mL
# Experimental: as §2
# [3] = test system: Escherichia coli (ATCC 25922); test: Broth microdilution MIC; type: cell-based; conditions: ciprofloxacin 0.03125–64 µg/mL
# Experimental: as §2
# [4] = test system: Staphylococcus aureus (ATCC 29213); test: Broth microdilution MIC; type: cell-based; conditions: ciprofloxacin 0.03125–64 µg/mL
# Experimental: as §2
# HeLa cells [5] = test: MTT cell viability assay, HeLa; type: cell-based, human
# Experimental: (§3) The anticancer potential of substituted theophylline derivatives was investigated using human lung carcinoma (A549, CCL-185) and cervical cancer (HeLa, CCL-2) cell lines obtained from the American Type Culture Collection (ATCC). To evaluate the selectivity of the tested compounds, cytotoxicity was also assessed in a healthy human bronchial epithelial cell line (BEAS-2B, ATCC CRL-9609). Cells were maintained in DMEM (Euroclone S.p.A., Pero, Italy supplemented with 10% fetal bovine serum (Sigma-Aldrich, St. Louis, MO, USA) and 1% penicillin–streptomycin (1%, Capricorn Scientific GmbH, Ebsdorfergrund, Germany at 37 °C in a humidified atmosphere containing 5% CO2. The theophylline-derived compounds (1a–1e) were dissolved in DMSO to prepare 100 mM stock solutions, which were then diluted with DMEM to obtain final working concentrations ranging from 3.125 µM to 100 µM. To evaluate cell viability, the MTT colorimetric assay was employed. Upon reaching logarithmic growth, A549, HeLa and BEAS-2B cells were seeded at a density of 7000 cells per well in 96-well microplates and allowed to attach for 24 h. Following this, cells were treated with different concentrations of the compounds and incubated for 48 h. After treatment, 100 µL of fresh medium and 20 µL of MTT reagent (5 mg/mL, Bio Basic Inc., Markham, ON, Canada) were added to each well, and cells were incubated for an additional 3 h. The resulting formazan crystals were solubilized with DMSO. Cell viability was calculated as the percentage of absorbance relative to untreated controls, and IC50 values were determined by nonlinear regression analysis using GraphPad Prism software, version 8.0 (GraphPad Software, San Diego, CA, USA. All experiments were performed in at least three independent replicates, and results are reported as mean ± SD. The percentage of inhibition was calculated based on the reduction in metabolic activity of the cells following compound treatment, as assessed by the MTT assay. The absorbance was measured at 570 nm using a microplate reader. The inhibition (%) was calculated using the following formula:Inhibition %=[1 − (Asample − Ablank)/[…]] × 100 To assess the tumor selectivity of the tested theophylline derivatives, the selectivity index (SI) was calculated for each compound. SI is defined as the ratio of the IC50 value in healthy (non-tumorigenic) cells to the IC50 value in cancer cells. In this study, IC50 values were determined for BEAS-2B (non-tumorigenic human bronchial epithelial cells) as a healthy control and for A549 (lung adenocarcinoma) and HeLa (cervical carcinoma) as tumor models. The SI was calculated according to the following equation:SI = [IC50, healthy/IC50, cancer]
# A549 cells [6] = test: ELISA of apoptosis-related proteins, A549; type: cell-based, human; conditions: A549, IC50, 48 h, vs untreated controls
# Experimental: (§4) To validate the gene expression changes observed in the RT-qPCR analysis at the protein level, ELISA assays were conducted to measure the protein levels in A549 and HeLa cells. […] Following incubation, cells were washed with cold PBS and lysed using RIPA buffer supplemented with protease and phosphatase inhibitors. […] was removed by centrifugation at 14,000× g for 10 min. Total protein concentration in the cell lysates was determined spectrophotometrically using the BCA Protein Assay Kit (Thermo Scientific, Waltham, MA, USA). Protein concentrations were standardized to equal amounts across all samples prior to ELISA analysis. Commercially available Human ELISA Kit (Abcam, Cambridge, UK) were used to quantify Caspase-3, BAX, BCL-2, and Cytochrome C levels, and all assays were performed according to the manufacturers’ protocols. Absorbance was measured at 450 nm using a microplate reader. All experiments were conducted in triplicate. The results were normalized to the control group (control = 1) and expressed as fold change relative to untreated controls.
# Candida albicans = test: Well plate biofilm formation assay (crystal violet); type: cell-based; conditions: over the concentration range given per compound (Table 4)
# Experimental: as §1
# A549 cells [7] = test: MTT cell viability assay, A549; type: cell-based, human; conditions: for IC50: MTT, 48 h, mean ± SD (n = 3)
# Experimental: as §3
# A549 cells [8] = test: RT-qPCR of apoptosis-related genes, A549; type: cell-based, human; conditions: A549, IC50 concentration, 48 h, vs untreated control
# Experimental: (§5) Total RNA was isolated from cells using the RNeasy Mini Kit (Qiagen GmbH, Hilden, Germany) according to the manufacturer’s instructions. RNA quality and quantity were evaluated spectrophotometrically. Subsequently, cDNA synthesis was performed using the iScript™ cDNA Synthesis Kit (Bio-Rad Laboratories, Hercules, CA, USA).
# (§6) RT-qPCR reactions (LightCycler® 480 Instrument II (Roche Diagnostics, Mannheim, Germany) were carried out using SYBR™ Green PCR Master Mix (Applied Biosystems, Foster City, CA, USA) and gene-specific primers targeting pro-apoptotic genes (CASP3, CASP8, CASP9, BAX, BAK1, PUMA, NOXA, CYCS), anti-apoptotic genes (BCL2, BCL-XL, MCL1), cell cycle/stress-related genes (TP53, CDKN1A/p21, GADD45A, ATF4), and the reference gene GAPDH. The primer sequences used for each gene are presented in the Supplementary File (Figure S66).
# (§7) All reactions were conducted in triplicate, and negative controls (no-template controls, NTC) were included in each run. Relative gene expression levels were analyzed using the 2^−ΔΔCt method, and results were normalized to control samples (control expression set as ‘1’) and expressed as fold change relative to controls.
# HeLa cells [9] = test: ELISA of apoptosis-related proteins, HeLa; type: cell-based, human; conditions: IC50, 48 h, vs untreated controls
# Experimental: as §4
# HeLa cells [10] = test: RT-qPCR of apoptosis-related genes, HeLa; type: cell-based, human; conditions: IC50 concentration, 48 h, vs untreated control
# Experimental: as §5, §6, §7
# BEAS-2B cells = test: MTT cell viability assay, BEAS-2B; type: cell-based; conditions: Homo sapiens, 48 h, mean ± SD (n = 3)
# Experimental: as §3
# [11] = test system: Candida albicans (ATCC 10231); test: Broth microdilution MIC; type: cell-based; conditions: fluconazole 0.3125–640 µg/mL
# Experimental: as §2
structure (smiles),measurement,setting,value
C[C@]12CC[C@H](O)CC1=CC[C@@H]1[C@@H]2CC[C@]2(C)C(c3cccnc3)=CC[C@@H]12 [Abiraterone],binding properties (docking),CYP450,-10.3 kcal/mol
"O=C(O)c1cn(C2CC2)c2cc(N3CCNCC3)c(F)cc2c1=O [Ciprofloxacin, ciprofloxacin, reference compound]",Antibiofilm activity Pseudomonas aeruginosa,Pseudomonas aeruginosa,35.79%
same,Antibiofilm activity Staphylococcus aureus,Staphylococcus aureus,50.56%
same,Antibiofilm activity Escherichia coli,Escherichia coli,36.67%
same,Antibiofilm activity Enterococcus faecalis,Enterococcus faecalis,18.11%
same,Microbial growth in positive control wells,[1],no microbial growth was observed
same,Microbial growth in positive control wells,[2],no microbial growth was observed
same,Microbial growth in positive control wells,[3],no microbial growth was observed
same,Microbial growth in positive control wells,[4],no microbial growth was observed
"Cn1c(=O)c2c(ncn2Cc2ccccc2C(F)(F)F)n(C)c1=O [Compound 1a, 1,3-Dimethyl-7-(2-(trifluoromethyl)benzyl)-3,7-dihydro-1H-purine-2,6-dione]",Antibiofilm activity Pseudomonas aeruginosa,Pseudomonas aeruginosa,did not show antibiofilm activity and –
same,Antibiofilm activity Staphylococcus aureus,Staphylococcus aureus,did not show antibiofilm activity and –
same,Antibiofilm activity Escherichia coli,Escherichia coli,did not show antibiofilm activity and –
same,IC50,"HeLa cells [5]; Homo sapiens, HeLa, 48 h, MTT, mean ± SD (n = 3)",11.5 ± 1.2 µM
same,SI (HeLa),HeLa cells [5]; ratio of IC50 in BEAS-2B cells to IC50 in HeLa cells,8.70 ± 0.20
same,Protein level of BCL-2,A549 cells [6],marked decrease
same,"Protein levels of Caspase-3, BAX and Cytochrome C",A549 cells [6],significant increases
same,Antibiofilm activity Enterococcus faecalis,Enterococcus faecalis,1.08–14.7%
same,Antibiofilm activity Candida albicans,Candida albicans,0.5–13.7%
same,IC50,"A549 cells [7]; Homo sapiens, A549, 48 h",15.7 ± 0.6 µM
same,IC50,A549 cells [7],12.4 ± 0.7 µM
same,SI (A549),A549 cells [7]; ratio of IC50 in BEAS-2B cells to IC50 in A549 cells,8.06 ± 0.03 and 8.06 ± 0.10
same,"Expression of anti-apoptotic genes (BCL2, BCL-XL, MCL1)",A549 cells [8],notable downregulation
same,"Expression of pro-apoptotic genes (CASP3, CASP8, CASP9, BAX, BAK1, PUMA, NOXA, CYCS) and cell cycle/stress genes (TP53, CDKN1A, FAS, GADD45A, ATF4)",A549 cells [8],significant upregulation
same,Protein level of BCL-2,HeLa cells [9],marked decrease
same,"Protein levels of Caspase-3, BAX and Cytochrome C",HeLa cells [9],significant increases
same,"Expression of anti-apoptotic genes (BCL2, BCL-XL, MCL1)",HeLa cells [10],notable downregulation
same,"Expression of pro-apoptotic genes (CASP3, CASP8, CASP9, BAX, BAK1, PUMA, NOXA, CYCS) and cell cycle/stress genes (TP53, CDKN1A, FAS, GADD45A, ATF4)",HeLa cells [10],significant upregulation
same,IC50,BEAS-2B cells,100 ± 2 µM
"OC(Cn1cncn1)(Cn1cncn1)c1ccc(F)cc1F [Fluconazole, fluconazole, reference compound]",Antibiofilm activity Candida albicans,Candida albicans,29.10%
same,Microbial growth in positive control wells,[11],no microbial growth was observed
